# Entries after “also recorded” stand apart in the source; their conditions may differ. Read-outs that look alike come from different tables or passages of the source.
# Assays:
# [1] = target: T1, mGluR5 (Rattus norvegicus, UniProt P31424); test: mGluR5 radioligand displacement binding assay with [3H]MPEP; details: for decrease in binding affinity compared to the phenyl analogue: 17 v. 22, 18 v. 25
# [2] = target: T1, mGluR5; test: mGluR5 functional assay, calcium fluorescence; format: cell-based
# [3] = read-out: mGluR5 binding affinity Ki±SEM, [3H]MPEP, rat brain membranes or HEK293-T cells transfected with cloned rat mGluR5
# [4] = read-out: mGluR5 function (Ca+2 flux) IC50±SEM, inhibition of glutamate-induced calcium mobilization
# T1 sequence (P31424 21-1203): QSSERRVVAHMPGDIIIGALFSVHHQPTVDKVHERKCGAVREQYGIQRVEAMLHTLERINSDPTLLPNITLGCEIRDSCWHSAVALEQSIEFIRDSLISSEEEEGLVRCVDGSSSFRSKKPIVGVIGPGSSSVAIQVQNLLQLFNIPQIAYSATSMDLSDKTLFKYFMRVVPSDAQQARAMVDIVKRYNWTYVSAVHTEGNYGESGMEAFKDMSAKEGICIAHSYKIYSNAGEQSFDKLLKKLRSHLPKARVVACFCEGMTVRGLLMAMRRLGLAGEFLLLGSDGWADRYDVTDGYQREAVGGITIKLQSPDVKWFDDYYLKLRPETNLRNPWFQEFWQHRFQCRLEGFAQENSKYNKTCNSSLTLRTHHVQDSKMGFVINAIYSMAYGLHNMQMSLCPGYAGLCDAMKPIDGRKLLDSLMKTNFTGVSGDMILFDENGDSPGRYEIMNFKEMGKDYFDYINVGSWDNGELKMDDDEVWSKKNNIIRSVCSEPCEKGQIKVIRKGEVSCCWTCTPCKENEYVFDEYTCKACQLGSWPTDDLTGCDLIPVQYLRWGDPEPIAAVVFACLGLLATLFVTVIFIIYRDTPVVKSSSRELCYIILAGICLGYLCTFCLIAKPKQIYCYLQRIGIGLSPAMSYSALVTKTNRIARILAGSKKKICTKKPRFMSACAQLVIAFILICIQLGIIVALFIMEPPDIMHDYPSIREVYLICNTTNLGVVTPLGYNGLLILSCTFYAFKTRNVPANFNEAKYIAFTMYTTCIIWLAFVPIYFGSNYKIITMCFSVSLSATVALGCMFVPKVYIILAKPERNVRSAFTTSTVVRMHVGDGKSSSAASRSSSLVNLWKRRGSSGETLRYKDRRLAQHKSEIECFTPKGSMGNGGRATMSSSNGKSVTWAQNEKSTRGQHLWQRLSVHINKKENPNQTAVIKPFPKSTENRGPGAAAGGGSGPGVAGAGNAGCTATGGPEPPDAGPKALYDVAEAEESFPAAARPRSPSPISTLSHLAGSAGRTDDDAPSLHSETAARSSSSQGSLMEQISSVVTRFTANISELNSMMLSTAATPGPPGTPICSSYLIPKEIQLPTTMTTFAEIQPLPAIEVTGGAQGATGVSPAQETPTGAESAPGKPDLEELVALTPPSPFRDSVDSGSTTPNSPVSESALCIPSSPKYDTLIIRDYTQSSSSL
decrease in binding affinity compared to the phenyl analogue [1],Compound,"Ki [1, 3] [nM]","IC50 [2, 4] [nM]",also measured
,2-(Pyridin-3-yl)-4-(2-methylbenzo[d]thiazol-5-yl)benzonitrile [compound 26],> 10000,> 10000,activity at mGluR5 in words [1]: completely inactive
,2-Phenyl-4-(2-methylbenzo[d]thiazol-5-yl)benzonitrile [compound 25],483 ± 98,6890 ± 1250,increase in binding affinity compared to parent structure 4 ([1]; 25 v. 4): ~ 4 fold
~ 10 fold,"Cc1ccc2ccc(-c3ccc(OCc4ccccc4)c(C#N)c3)cc2n1 [compound 17, 2-Benzoxy-5-(2-methylquinolin-7-yl)benzonitrile]",,,
15 fold,"Cc1nc2cc(-c3ccc(OCc4ccccc4)c(C#N)c3)ccc2s1 [compound 18, 2-Benzoxy-5-(2-methylbenzo[d]thiazol-5-yl)benzonitrile]",,,
,"Cc1ccc2ccc(-c3cncc(C#N)c3)cc2n1 [compound 30, 5-(2-Methylquinolin-7-yl)nicotinonitrile]",,,Ki [1]: 100 ± 21 nM; IC50 [2]: 68 ± 5.3 nM
,"Cc1ccc2ccc(-c3cnc(Cl)c(C#N)c3)cc2n1 [compound 31, 2-Chloro-5-(2-methylquinolin-7-yl)nicotinonitrile]",,,mode of mGluR5 antagonism (full or partial) ([2]; glutamate-induced mGluR5 activity): partial antagonist activity; also recorded: weak partial antagonist

# — paper PMC2871681 (Bioorganic & medicinal chemistry, 2010)
